In US9409866B2, “Pyridine-2-amides useful as CB2 agonists” (Hoffmann-La Roche Inc., priority 2012, dated 2016):
Where two headings read alike, the source gives them in different places.

Key:
human CB1 receptors = human CB1 receptors (Homo sapiens (Human), UniProt P21554); test: functional cAMP assay, CHO cells expressing human CB1; format: cell-based
Method: (§1) CHO cells expressing human CB1 or CB2 receptors are seeded 17-24 hours prior to the experiment 50.000 cells per well in a black 96 well plate with flat clear bottom (Corning Costar #3904) in DMEM (Invitrogen No. 31331), 1×HT supplement, with 10% fetal calf serum and incubated at 5% CO2 and 37° C. in a humidified incubator. The growth medium was exchanged with Krebs Ringer Bicarbonate buffer with 1 mM IBMX and incubated at 30° C. for 30 min. Compounds were added to a final assay volume of 100 μl and incubated for 30 min at 30° C. Using the cAMP-Nano-TRF detection kit the assay (Roche Diagnostics) was stopped by the addition of 50 μl lysis reagent (Tris, NaCl, 1.5% Triton X100, 2.5% NP40, 10% NaN3) and 50 μl detection solutions (20 μM mAb Alexa700-cAMP 1:1, and 48 μM Ruthenium-2-AHA-cAMP) and shaken for 2 h at room temperature. The time-resolved energy transfer is measured by a TRF reader (Evotec Technologies GmbH), equipped with a ND:YAG laser as excitation source. The plate is measured twice with the excitation at 355 nm and at the emission with a delay of 100 ns and a gate of 100 ns, total exposure time 10 s at 730 (bandwidth 30 nm) or 645 nm (bandwidth 75 nm), respectively. The FRET signal is calculated as follows: FRET=T730-Alexa730-P(T645-B645) with P=Ru730-B730/Ru645-B645, where T730 is the test well measured at 730 nM, T645 is the test well measured at 645 nm, B730 and B645 are the buffer controls at 730 nm and 645 nm, respectively. cAMP content is determined from the function of a standard curve spanning from 10 μM to 0.13 nM cAMP.
(§2) EC50 values were determined using Activity Base analysis (ID Business Solution, Limited). The EC50 values for a wide range of cannabinoid agonists generated from this assay were in agreement with the values published in the scientific literature.

human CB2 receptors = human CB2 receptors (Homo sapiens (Human), UniProt P34972); test: functional cAMP assay, CHO cells expressing human CB2; format: cell-based
Method: as §1, §2

[1] = functional cAMP assay, CHO cells expressing human CB1; read-out: Human CB1 EC50
[2] = Human CB1 EC50 (uM), functional cAMP assay, CHO cells expressing human CB1
[3] = read-out: Human CB1 EC50; functional cAMP assay, CHO cells expressing human CB1

Chain of human CB1 receptors (P21554 whole entry): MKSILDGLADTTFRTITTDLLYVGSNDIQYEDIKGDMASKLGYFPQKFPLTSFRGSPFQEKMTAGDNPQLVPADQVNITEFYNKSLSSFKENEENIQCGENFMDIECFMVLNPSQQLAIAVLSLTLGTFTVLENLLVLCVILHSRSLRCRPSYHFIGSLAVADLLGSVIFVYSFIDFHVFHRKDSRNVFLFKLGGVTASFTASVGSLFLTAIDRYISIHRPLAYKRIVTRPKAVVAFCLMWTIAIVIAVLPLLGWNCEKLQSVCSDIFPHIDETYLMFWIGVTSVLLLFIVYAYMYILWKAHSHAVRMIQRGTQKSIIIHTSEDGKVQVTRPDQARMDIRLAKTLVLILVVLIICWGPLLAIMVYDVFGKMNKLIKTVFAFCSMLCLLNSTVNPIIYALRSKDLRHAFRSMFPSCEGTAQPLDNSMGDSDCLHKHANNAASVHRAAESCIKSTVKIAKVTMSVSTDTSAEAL
Chain of human CB2 receptors (P34972 whole entry): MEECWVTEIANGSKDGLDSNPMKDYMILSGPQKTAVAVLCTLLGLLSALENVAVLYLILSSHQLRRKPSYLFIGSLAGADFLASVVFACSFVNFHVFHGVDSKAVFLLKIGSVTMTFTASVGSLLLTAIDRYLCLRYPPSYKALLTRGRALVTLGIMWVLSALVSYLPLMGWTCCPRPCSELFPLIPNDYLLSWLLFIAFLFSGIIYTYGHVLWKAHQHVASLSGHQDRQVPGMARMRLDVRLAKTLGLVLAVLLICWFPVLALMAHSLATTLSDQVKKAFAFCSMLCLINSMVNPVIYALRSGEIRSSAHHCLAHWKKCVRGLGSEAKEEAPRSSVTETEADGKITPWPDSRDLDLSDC

Compound: CC(C)C[C@](C)(CO)NC(=O)c1cc(OCC2CC2)c(Cl)cn1 [Example 28, (+)-5-Chloro-4-cyclopropylmethoxy-pyridine-2-carboxylic acid (1-hydroxymethyl-1,3-dimethyl-butyl)-amide]
- EC50 (human CB1 receptors; [1]): > 10 µM
- EC50 (human CB2 receptors; read-out: Human CB2 EC50): 0.0263 µM

Compound: O=C(c1cc(OCC(F)(F)F)c(C2CC2)cn1)N1CCCC12COC2 [Example 71, [5-Cyclopropyl-4-(2,2,2-trifluoro-ethoxy)-pyridin-2-yl]-(2-oxa-5-aza-spiro[3.4]oct-5-yl)-methanone]
- EC50 (human CB1 receptors; [1]): > 10 µM
- EC50 (human CB2 receptors; read-out: Human CB2 EC50): 0.586 µM

Compound: CNC(=O)C(C)(NC(=O)c1cc(OCC(F)(F)F)c(C2CC2)cn1)c1noc(C)n1 (single isomer, unassigned) [Example 187, 5-cyclopropyl-N-[1-(methylamino)-2-(5-methyl-1,2,4-oxadiazol-3-yl)-1-oxopropan-2-yl]-4-(2,2,2-trifluoroethoxy)pyridine-2-carboxamide]
- EC50 (human CB1 receptors; [2]): > 10 µM
- EC50 (human CB2 receptors; Human CB2 EC50 (uM)): 0.416 µM

Compound: CC(C)[C@](C)(CO)NC(=O)c1cc(OCC2CCC2)c(Cl)cn1 [Example 12, 5-Chloro-4-cyclobutylmethoxy-pyridine-2-carboxylic acid ((R)-1-hydroxymethyl-1,2-dimethyl-propyl)-amide]
- EC50 (human CB1 receptors; [1]): > 10 µM
- EC50 (human CB2 receptors; read-out: Human CB2 EC50): 0.0092 µM

Compound: Cc1nc(C(C)(CC2CC2)NC(=O)c2cc(OC(C)CF)c(C3CC3)cn2)no1 (single isomer, unassigned) [Example 287, 5-cyclopropyl-N-(1-cyclopropyl-2-(5-methyl-1,2,4-oxadiazol-3-yl)propan-2-yl)-4-(1-fluoropropan-2-yloxy)picolinamide]
- EC50 (human CB1 receptors; [2]): > 10 µM
- EC50 (human CB2 receptors; Human CB2 EC50 (uM)): 0.0014 µM

Compound: Cc1nc(C(C)(CS(C)(=O)=O)NC(=O)c2cc(OCC(F)(F)F)c(C3(F)COC3)cn2)no1 (single isomer, unassigned) [Example 133, 5-(3-fluorooxetan-3-yl)-N-[2-(5-methyl-1,2,4-oxadiazol-3-yl)-1-methylsulfonylpropan-2-yl]-4-(2,2,2-trifluoroethoxy)pyridine-2-carboxamide]
- EC50 (human CB1 receptors; [3]): > 10 µM
- EC50 (human CB2 receptors; read-out: Human CB2 EC50): 0.568 µM

Compound: O=C(NC1(c2ncco2)COC1)c1cc(OCC2CC2)c(Cl)cn1 [Example 36, 5-Chloro-4-cyclopropylmethoxy-pyridine-2-carboxylic acid (3-oxazol-2-yl-oxetan-3-yl)-amide]
- EC50 (human CB1 receptors; [1]): > 10 µM
- EC50 (human CB2 receptors; read-out: Human CB2 EC50): 0.0517 µM

Compound: CCC(C)(CO)NC(=O)c1cc(OCC2CC2)c(Cl)cn1 (stereo not shown) [Example 26, 5-Chloro-4-cyclopropylmethoxy-pyridine-2-carboxylic acid (1-hydroxymethyl-1-methyl-propyl)-amide]
- EC50 (human CB1 receptors; [1]): > 10 µM
- EC50 (human CB2 receptors; read-out: Human CB2 EC50): 0.0476 µM

Compound: CNC(=O)CC(C)(NC(=O)c1cc(O[C@@H](C)C(F)(F)F)c(C2CC2)cn1)C1CC1 (stereo partly drawn) [Example 249, 5-cyclopropyl-N-[2-cyclopropyl-4-(methylamino)-4-oxobutan-2-yl]-4-[(2S)-1,1,1-trifluoropropan-2-yl]oxypyridine-2-carboxamide]
- EC50 (human CB1 receptors; [1]): > 10 µM
- EC50 (human CB2 receptors; read-out: Human CB2 EC50): 0.001 µM

Compound: Cc1nc(C(C)(NC(=O)c2cc(OCC(F)(F)F)c(C3CC3)cn2)C(=O)N2CC3(COC3)C2)no1 (stereo not shown) [Example 148, 5-cyclopropyl-N-[2-(5-methyl-1,2,4-oxadiazol-3-yl)-1-(2-oxa-6-azaspiro[3.3]heptan-6-yl)-1-oxopropan-2-yl]-4-(2,2,2-trifluoroethoxy)pyridine-2-carboxamide]
- EC50 (human CB1 receptors; [1]): > 10 µM
- EC50 (human CB2 receptors; read-out: Human CB2 EC50): 0.205 µM

Compound: Cc1nc([C@](C)(NC(=O)c2cc(OCC(F)(F)F)c(Cl)cn2)C2CC2)no1 (single isomer, unassigned; enantiomer a) [Example 74, 5-Chloro-4-(2,2,2-trifluoro-ethoxy)-pyridine-2-carboxylic acid [1-cyclopropyl-1-(5-methyl-[1,2,4]oxadiazol-3-yl)-ethyl]-amide (enantiomer A)]
- EC50 (human CB1 receptors; [2]): > 10 µM
- EC50 (human CB2 receptors; Human CB2 EC50 (uM)): 0.0133 µM

Compound: Cc1nc(C(C)(CS(C)(=O)=O)NC(=O)c2cc(OCC(F)(F)F)c(C3CCC3)cn2)no1 (single isomer, unassigned) [Example 125, 5-cyclobutyl-N-[1-methyl-1-(5-methyl-1,2,4-oxadiazol-3-yl)-2-methylsulfonyl-ethyl]-4-(2,2,2-trifluoroethoxy)pyridine-2-carboxamide]
- EC50 (human CB1 receptors; [3]): > 10 µM
- EC50 (human CB2 receptors; Human CB2 EC50 (uM)): 0.011 µM

Compound: Cc1nc(C(C)(CC2CC2)NC(=O)c2cc(OCC(F)(F)F)c(C3CCC3)cn2)no1 (single isomer, unassigned) [Example 117, 5-cyclobutyl-N-[1-cyclopropyl-2-(5-methyl-1,2,4-oxadiazol-3-yl)propan-2-yl]-4-(2,2,2-trifluoroethoxy)pyridine-2-carboxamide]
- EC50 (human CB1 receptors; [3]): > 10 µM
- EC50 (human CB2 receptors; Human CB2 EC50 (uM)): 0.0024 µM

Compound: Cc1nc(C(C)(CO)NC(=O)c2cc(OCC(F)(F)F)c(C3CC3)cn2)no1 (single isomer, unassigned) [Example 140, 5-cyclopropyl-N-[1-hydroxy-2-(5-methyl-1,2,4-oxadiazol-3-yl)propan-2-yl]-4-(2,2,2-trifluoroethoxy)pyridine-2-carboxamide]
- EC50 (human CB1 receptors; [2]): > 10 µM
- EC50 (human CB2 receptors; Human CB2 EC50 (uM)): 0.511 µM

Compound: C[C@H](Oc1cc(C(=O)NC(C)(CC(N)=O)C2CC2)ncc1C1CC1)C(F)(F)F (stereo partly drawn) [Example 259, N-(4-amino-2-cyclopropyl-4-oxobutan-2-yl)-5-cyclopropyl-4-[(2S)-1,1,1-trifluoropropan-2-yl]oxypyridine-2-carboxamide]
- EC50 (human CB1 receptors; [1]): > 10 µM
- EC50 (human CB2 receptors; read-out: Human CB2 EC50): 0.0005 µM

Compound: Cc1nc(C(C)(NC(=O)c2cc(O[C@@H](C)C(F)(F)F)c(C3CC3)cn2)C2CC2)no1 (single isomer, unassigned; epimer a) [Example 68]
- EC50 (human CB1 receptors; [1]): > 10 µM
- EC50 (human CB2 receptors; read-out: Human CB2 EC50): 0.00395 µM

Compound: O=C(NC1(CO)CCCC1)c1cc(OCC2CC2)c(Cl)cn1 [Example 6, 5-Chloro-4-cyclopropylmethoxy-pyridine-2-carboxylic acid (1-hydroxymethyl-cyclopentyl)-amide]
- EC50 (human CB1 receptors; [1]): > 10 µM
- EC50 (human CB2 receptors; read-out: Human CB2 EC50): 0.0524 µM

Compound: O=C(NCC1(O)CCCCC1)c1cc(OCC2CC2)c(Cl)cn1 [Example 5, 5-Chloro-4-cyclopropylmethoxy-pyridine-2-carboxylic acid (1-hydroxy-cyclohexylmethyl)-amide]
- EC50 (human CB1 receptors; [1]): > 10 µM
- EC50 (human CB2 receptors; read-out: Human CB2 EC50): 0.107 µM

Compound: CNC(=O)CC1(NC(=O)c2cc(OCC(F)(F)F)c(C3(F)CCC3)cn2)CS(=O)(=O)C1 [Example 285, 5-(1-fluorocyclobutyl)-N-[3-[2-(methylamino)-2-oxoethyl]-1,1-dioxothietan-3-yl]-4-(2,2,2-trifluoroethoxy)pyridine-2-carboxamide]
- EC50 (human CB1 receptors; [1]): > 10 µM
- EC50 (human CB2 receptors; read-out: Human CB2 EC50): 1.44 µM

Compound: Cc1nc(C(C)(CS(C)(=O)=O)NC(=O)c2cc(O[C@@H](C)C(F)(F)F)c(C3(F)CCC3)cn2)no1 (stereo partly drawn) [Example 137, 5-(1-fluorocyclobutyl)-N-[2-(5-methyl-1,2,4-oxadiazol-3-yl)-1-methylsulfonylpropan-2-yl]-4-[(2S)-1,1,1-trifluoropropan-2-yl]oxypyridine-2-carboxamide]
- EC50 (human CB1 receptors; [1]): > 10 µM
- EC50 (human CB2 receptors; read-out: Human CB2 EC50): 0.0105 µM

Compound: Cc1nc([C@](C)(CC2CC2)NC(=O)c2cc(OCC(F)(F)F)c(Cl)cn2)no1 (single isomer, unassigned) [Example 94, 5-Chloro-4-(2,2,2-trifluoro-ethoxy)-pyridine-2-carboxylic acid [2-cyclopropyl-1-methyl-1-(5-methyl-[1,2,4]oxadiazol-3-yl)-ethyl]-amide]
- EC50 (human CB1 receptors; [2]): > 10 µM
- EC50 (human CB2 receptors; Human CB2 EC50 (uM)): 0.0747 µM

Compound: CCC[C@H](CO)NC(=O)c1cc(OCC2CC2)c(Cl)cn1 [Example 13, 5-Chloro-4-cyclopropylmethoxy-pyridine-2-carboxylic acid ((R)-1-hydroxymethyl-butyl)-amide]
- EC50 (human CB1 receptors; [1]): > 10 µM
- EC50 (human CB2 receptors; read-out: Human CB2 EC50): 0.146 µM

Compound: Cc1nc(C(C)(CC2CC2)NC(=O)c2cc(OCC(F)(F)F)c(C3CCC3)cn2)no1 (stereo not shown) [Example 108, 5-Cyclobutyl-4-(2,2,2-trifluoro-ethoxy)-pyridine-2-carboxylic acid [2-cyclopropyl-1-methyl-1-(5-methyl-[1,2,4]oxadiazol-3-yl)-ethyl]-amide]
- EC50 (human CB1 receptors; [1]): 0.79 µM
- EC50 (human CB2 receptors; read-out: Human CB2 EC50): 0.0027 µM

Compound: CNC(=O)CC(C)(NC(=O)c1cc(OCC(F)(F)F)c(C2CC2)cn1)C1CC1 (stereo not shown) [Example 229, 5-cyclopropyl-N-[2-cyclopropyl-4-(methylamino)-4-oxobutan-2-yl]-4-(2,2,2-trifluoroethoxy)pyridine-2-carboxamide]
- EC50 (human CB1 receptors; [1]): > 10 µM
- EC50 (human CB2 receptors; read-out: Human CB2 EC50): 0.0114 µM

Compound: Cn1nnnc1C(NC(=O)c1cc(OCC(F)(F)F)c(C2CC2)cn1)C(C)(C)C (stereo not shown) [Example 164, 5-cyclopropyl-N-[2,2-dimethyl-1-(1-methyltetrazol-5-yl)propyl]-4-(2,2,2-trifluoroethoxy)pyridine-2-carboxamide]
- EC50 (human CB2 receptors; Human CB2 EC50 (uM)): 0.0168 µM
